For experiment [1], the system named is acetic acid-induced chemonociception. As to the kind of experiment: Acetic acid-induced writhing. In kind it is in vivo. The settings on record: mice; for antinociceptive effect in the writhing test: p.o.
The test system of experiment [2] is oedematous response to croton oil. To be noted: Della Loggia et al., 1986; cited from earlier work.
Experiment [3] concerns carrageenan-induced hemorrhoids. As to the kind of experiment: Antihaemorrhoidal activity, anorectum:body weight ratio model. The settings on record: rats, p.o.; for effect against carrageenan-induced hemorrhoids: chronic administration (7 days). Format: in vivo. How it is done:
The antihaemorrhoidal activity of the Euphorbia prostrata extract was assessed and compared with reference drug, diosmin using anorectum:body weight ratio model in rats (modified method of Jia et al., 2000).
FIG. 1: Effect of Euphorbia prostrata extract (E.p. extract) against carrageenan-induced hemorrhoids in rats.
FIG. 2: Effect of individual component of Euphorbia prostrata extract (E.p. extract) against carrageenan-induced hemorrhoids in rats.

Experiment [4] concerns iNOS (inducible nitric oxide synthase). To be noted: lipopolysaccharide activated RAW 264.7 macrophages (Liang et al., 1999); cited from earlier work.
The test system of experiment [5] is COX-2. The settings on record: lipopolysaccharide activated RAW 264.7 macrophages (Liang et al., 1999); cited from earlier work.
Experiment [6] deals with rat liver microsomes. To be noted: CCl4 induced peroxidation; rat liver microsomes (Cholbi et al., 1991); cited from earlier work. (In general: Liver microsomes are a subcellular fraction often used to study metabolism.)
In experiment [7] the test system is murine macrophages. To be noted: murine macrophages (Xagorari et al., 2001); cited from earlier work.
Experiment [8] has as its system carrageenan-induced hyperalgesia. As to the kind of experiment: Carrageenan-induced hyperalgesia, paw pressure test. In kind it is in vivo. The settings on record: rats; 2 mg/kg. The text has this:
FIG. 7: Effect of Euphorbia prostrata extract (E.p. extract) against carageenan-induced hyperalgesia in rats.
On the technique in general: The carrageenan paw model is a standard test of acute inflammation.

Experiment [9] can be described thus: In vitro superoxide radical scavenging activity. Format: biochemical. To be noted: 25 μg. The text has this: FIG. 9: In vitro superoxide radical scavenging activity of Euphorbia prostrata extract (E.p. extract).
Experiment [10] concerns histamine release. The settings on record: in vivo (Bhargava and Westfall, 1969); cited from earlier work.

Take `O=c1cc(-c2ccc(O)cc2)oc2cc(O[C@@H]3O[C@H](CO)[C@@H](O)[C@H](O)[C@H]3O)cc(O)c12` [apigenin-7-glucoside]: in experiment [1] (0.5, 1.0, and 2.0 mg/kg), the “antinociceptive effect in the writhing test” value is reported as “dose-dependent antinociceptive effect”. The “oedematous response to croton oil” value in [2] is given as “dose dependent inhibition”. In addition, in experiment [3] (0.478 mg/kg), the “effect against carrageenan-induced hemorrhoids” value is reported as “showed effect”.

As for `O=c1cc(-c2ccc(O)cc2)oc2cc(O)cc(O)c12` [apigenin], the “inhibition of transcriptional activation of iNOS” value in [4] is given as “most potent inhibitor”. Further, the “inhibition of transcriptional activation of COX-2” value in experiment [5] is given as “most potent inhibitor”. Besides, the antiperoxidative activity entry in experiment [6] is “significant antiperoxidative activity”. `O=c1cc(-c2ccc(O)c(O)c2)oc2cc(O[C@@H]3O[C@H](CO)[C@@H](O)[C@H](O)[C@H]3O)cc(O)c12` [luteolin-7-glucoside]: the “antinociceptive effect in the writhing test” value in [1] (0.25, 0.5, and 1.0 mg/kg) is “dose-dependent antinociceptive effect”. `COc1ccc(-c2cc(=O)c3c(O)cc(O[C@@H]4O[C@H](CO[C@@H]5O[C@@H](C)[C@H](O)[C@@H](O)[C@H]5O)[C@@H](O)[C@H](O)[C@H]4O)cc3o2)cc1O` [diosmin, reference compound]: in [3] (50 mg/kg, 7 days), the “anorectal body weight ratio” value is reported as “significantly decreased”; the “histopathological examination of the anorectum” value was “intact mucosal layer with prominent mucosal cells and mild leukocyte migration”. On to `O=c1cc(-c2ccc(O)c(O)c2)oc2cc(O)cc(O)c12` [luteolin], for which the “protein tyrosin phosphorylation, nuclear factor-κB mediated gene expression and pro-inflammatory cytokine production” value in [7] was “inhibits”. The antiperoxidative activity entry in experiment [6] is “significant antiperoxidative activity”. On to `CS(=O)(=O)Nc1ccc([N+](=O)[O-])cc1Oc1ccccc1` [nimesulide, reference compound], for which, in [1] (2 mg/kg), the pain threshold entry is “significantly increased”. For the same compound, in experiment [8], the paw withdrawal latencies entry is “increased”.

Turning to tocopherol, in experiment [9], the “superoxide radical scavenging activity” value was 25.54%. Regarding `O=c1oc2c(O)c(O)cc3c(=O)oc4c(O)c(O)cc1c4c23` [ellagic acid], the “histamine release mediated by histamine liberators (compound 48/80, dextran and polymyxin B sulfate)” value in [10] is “suppress histamine release”. Besides, the “effect against carrageenan-induced hemorrhoids” value in [3] (1.204 mg/kg) is on record as “showed effect”. In the case of `O=c1cc(-c2ccc(O)c(O)c2)oc2cc(O[C@@H]3O[C@H](CO)[C@H](O)[C@H](O)[C@H]3O)cc(O)c12` [luteolin-7-galactoside], the “oedematous response to croton oil” value in [2] was “dose dependent inhibition”. With `O=C(O)c1cc(O)c(O)c(O)c1` [gallic acid], the “effect against carrageenan-induced hemorrhoids” value in experiment [3] (1.123 mg/kg) was “showed effect”.

The values are drawn from US7371412B2, “Pharmaceutical compositions comprising an extract of Euphorbia prostrata” (priority 2004, dated 2008).
